Data on 24 molecules can be found in ChEMBL document CHEMBL1157129, “Synthesis and antiprotozoal activity of 2,5-bis[amidinoaryl]thiazoles” (Bioorg Med Chem, 2010).

Each structure is given as a SMILES string. Calls of active or inactive are those of the source. The calls are words filed in the database; no cut-off is given here.

Assay [1] has as its system Trypanosoma brucei rhodesiense. In words: Antitrypanosomal activity against Trypanosoma brucei rhodesiense STIB900 in infected mouse model assessed as parasitemia cure in host at 25 mg/kg, po for 4 days. In kind it is functional, organism-based. Further details: dose 25 mg/kg.
In assay [2] the test system is Trypanosoma brucei rhodesiense. In words: Antitrypanosomal activity against Trypanosoma brucei rhodesiense STIB900 in infected mouse model assessed as host survival time at 25 mg/kg, po for 4 days. In kind it is functional.
Assay [3] relates to Trypanosoma brucei rhodesiense. In words: Antitrypanosomal activity against Trypanosoma brucei rhodesiense STIB900. In kind it is functional, organism-based.
The next assay relates to Plasmodium falciparum. In words: Antiplasmodial activity against Plasmodium falciparum K1. In kind it is functional, organism-based.
A further assay has as its system L6. In words: Cytotoxicity against rat L6 cells. Format: cell-based.
The subject of assay [4] is Trypanosoma brucei rhodesiense. In words: Antitrypanosomal activity against Trypanosoma brucei rhodesiense STIB900 in infected mouse model assessed as parasitemia cure in host at 5 mg/kg, ip for 4 days. Further details: dose 5 mg/kg. Format: functional, organism-based.
Assay [5] has as its system Trypanosoma brucei rhodesiense. As to the kind of experiment: Antitrypanosomal activity against Trypanosoma brucei rhodesiense STIB900 in infected mouse model assessed as host survival time at 5 mg/kg, ip for 4 days. Format: functional. The settings on record: route intraperitoneal.

For `Cl.Cl.N/C(=N\O)c1ccc(-c2ncc(-c3ccc(/C(N)=N\O)nc3)s2)cc1`, the result in assay [1] was inactive. Besides, the Survival in assay [2] amounted to 36.8 days.
On to `Cl.Cl.N=C(N)c1ccc(-c2cnc(-c3ccc(C(=N)N)nc3)s2)cn1`, for which the half-inhibitory concentration (IC50) (commonly the concentration that gives 50% inhibition) in assay [3] is 6 nM; in the assay on Plasmodium falciparum, 1.1 nM; in the assay on L6, 1400 nM. In addition, the result in assay [4] was inactive. Moreover, the Survival in assay [5] came out at 50.5 days.
In the case of `N=C(N)c1ccc(-c2ccc(-c3ccc(C(=N)N)cc3)s2)cc1`, the values for the 50% inhibitory concentration (IC50) (in assay [3]; in the assay on Plasmodium falciparum) were 3 nM and 13.8 nM, respectively. In assay [5], the Survival was above 48.75 days.
Turning to `Cl.Cl.N/C(=N/O)c1ccc(-c2cnc(-c3ccc(/C(N)=N\O)cc3)s2)cc1`, in assay [1], the result was inactive. Moreover, the Survival in assay [2] was 35 days.
For the molecule `N=C(N)c1ccc(-c2ccc(-c3ccc(C(=N)N)cc3)o2)cc1` [FURAMIDINE], the midpoint of inhibition with L6, the IC50, lay at 6500 nM. In addition, the Survival in assay [5] was above 46 days.
Turning to `Cl.Cl.N/C(=N\O)c1ccc(-c2cnc(-c3ccc(/C(N)=N\O)cn3)s2)nc1`, the result in assay [1] was inactive. Further, the Survival in assay [2] turned out to be 9 days.
Turning to `CO/N=C(\N)c1ccc(-c2cnc(-c3ccc(/C(N)=N\OC)cn3)s2)cc1.Cl.Cl`, the result in assay [1] was inactive. Besides, the Survival in assay [2] amounted to 35 days.
Take `CO/N=C(\N)c1ccc(-c2cnc(-c3ccc(/C(N)=N/OC)nc3)s2)cc1.Cl`: the result in assay [1] was inactive. In addition, the Survival in assay [2] amounted to 42.8 days.
As for `Cl.Cl.N=C(N)c1ccc(-c2cnc(-c3ccc(C(=N)N)cn3)s2)cc1`, the values for the IC50 (in assay [3]; in the assay on Plasmodium falciparum; in the assay on L6) were 16 nM, 12.5 nM and 102000 nM, respectively. In addition, the result in assay [4] was inactive. In addition, the Survival in assay [5] was 30.25 days.
With `N=C(N)c1ccc(OCCCCCOc2ccc(C(=N)N)cc2)cc1` [PENTAMIDINE], in assay [5], the Survival amounted to 45 days.
For `Cl.Cl.N=C(N)c1ccc(-c2cnc(-c3ccc(C(=N)N)cn3)s2)nc1`, the IC50 in assay [3] was 176 nM; with Plasmodium falciparum, 24.6 nM; with L6, above 195000 nM. Also, the result in assay [4] was inactive. Besides, the Survival in assay [5] worked out at 21.5 days.
On to `CO/N=C(/N)c1ccc(-c2cnc(-c3ccc(/C(N)=N\OC)cc3)s2)cc1.Cl.Cl`, for which the outcome in assay [1] was inactive. Moreover, in assay [2], the Survival turned out to be 41 days.
For the molecule `CO/N=C(\N)c1ccc(-c2ccc(-c3ccc(/C(N)=N/OC)cn3)o2)cc1`, the result in assay [4] was Active. For the same molecule, the Survival in assay [5] and in assay [2] was above 60 days throughout.
`Cl.Cl.N/C(=N\O)c1ccc(-c2cnc(-c3ccc(/C(N)=N/O)nc3)s2)cc1`: in assay [1], the result was inactive. Moreover, the Survival in assay [2] amounted to 37.5 days.
On to `Cl.Cl.N=C(N)c1ccc(-c2ncc(-c3ccc(C(=N)N)nc3)s2)cc1`, for which the half-maximal inhibitory concentration (IC50) is 6 nM in assay [3], 2.4 nM in the assay with Plasmodium falciparum and 40200 nM with L6. The result in assay [4] was inactive. The Survival in assay [5] was above 36 days.
Consider `Cl.Cl.N=C(N)c1ccc(-c2cnc(-c3ccc(C(=N)N)cc3)s2)cc1`, for which the IC50 in assay [3] turned out to be 4 nM; in the assay on Plasmodium falciparum it was 2 nM. Besides, in assay [5], the Survival is above 44.5 days.
As to `CONC(=N)c1ccc(-c2ccc(-c3ccc(C(=N)NOC)cc3)o2)cc1` [PAFURAMIDINE], the result in assay [4] was inactive. Further, the result in assay [1] was Active. Further, the Survival is 30 days in assay [5] and above 60 days in assay [2].
Consider `Cl.Cl.N=C(N)c1ccc(-c2ncc(-c3ccc(C(=N)N)nc3)s2)nc1`, for which the IC50 in assay [3] turned out to be 38 nM; in the assay on Plasmodium falciparum, 13 nM; in the assay on L6 it was 37400 nM. Further, in assay [4], the outcome was inactive. Further, the Survival in assay [5] turned out to be 29.25 days.
As for `N=C(N)c1ccc(-c2ccc(-c3ccc(C(=N)N)cn3)o2)cc1`, the Survival in assay [5] was above 54.5 days.
Consider `Cl.Cl.N/C(=N\O)c1ccc(-c2cnc(-c3ccc(/C(N)=N\O)cn3)s2)cc1`, for which the result in assay [1] was inactive. The Survival in assay [2] came out at 24 days.
Regarding `Cl.Cl.N/C(=N\O)c1ccc(-c2cnc(-c3ccc(/C(N)=N\O)nc3)s2)cn1`, in assay [2], the Survival is 24 days.
As to `Cl.Cl.N=C(N)c1ccc(-c2cnc(-c3ccc(C(=N)N)nc3)s2)cc1`, the 50% inhibitory concentration (IC50) in assay [3] came to 4 nM; with Plasmodium falciparum, 2.5 nM; with L6 it was 1800 nM. In assay [4], the outcome was inactive. Further, in assay [5], the Survival was found to be 44.5 days.
As for `CO/N=C(\N)c1ccc(-c2cnc(-c3ccc(/C(N)=N\OC)nc3)s2)cn1.Cl.Cl`, the Survival in assay [2] was 9 days.
For the molecule `CO/N=C(\N)c1ccc(-c2cnc(-c3ccc(/C(N)=N\OC)cn3)s2)nc1.Cl.Cl`, the outcome in assay [1] was inactive. Besides, the Survival in assay [2] is 9 days.
